Key:
[1] = target: T1, Gamma-secretase (Homo sapiens) (UniProt Q96BI3+Q9NZ42+Q8WW43+P49768+Q92542+P49810); experiment: Selectivity ratio of IC50 for modulation of gamma-secretase (unknown origin) assessed as inhibition of amyloid beta 40 production to IC50 for modulation of gamma-secretase (unknown origin) assessed as inhibition of amyloid beta 42 production; type: protein-complex assay
[2] = target: T1, Gamma-secretase (Homo sapiens); experiment: Modulation of gamma-secretase (unknown origin) assessed as inhibition of amyloid beta 40 production at 20 uM relative to control; type: protein-complex assay
Gamma-secretase [3] = experiment: Modulation of gamma-secretase (unknown origin) assessed as inhibition of amyloid beta 42 production; type: protein-complex assay, Homo sapiens
Gamma-secretase [4] = experiment: Modulation of gamma-secretase (unknown origin) assessed as inhibition of amyloid beta 40 production; type: protein-complex assay, Homo sapiens
[5] = target: T1, Gamma-secretase (Homo sapiens); experiment: Modulation of gamma-secretase (unknown origin) assessed as inhibition of amyloid beta 40 production at 4 uM relative to control; type: protein-complex assay
Gamma-secretase [6] = experiment: Modulation of gamma-secretase (unknown origin) expressed in CHO cells assessed as inhibition of amyloid beta 40 production; type: cell-based, Homo sapiens
Gamma-secretase [7] = experiment: Modulation of gamma-secretase (unknown origin) expressed in CHO cells assessed as inhibition of amyloid beta 42 production; type: cell-based, Homo sapiens

Row | Ratio IC50 [1] | inhibition [2] [%] | inhibition [5] [%] | SMILES | IC50 (Gamma-secretase [3]) [nM] | IC50 (Gamma-secretase [4]) [nM] | IC50 (Gamma-secretase [6]) [nM] | IC50 (Gamma-secretase [7]) [nM]
1 | > 86 | 31 |  | CC(=O)O[C@@H]([C@@H]1C[C@@H](C)[C@H]2[C@H](O1)[C@H](O)[C@@]1(C)[C@@H]3CC[C@H]4C(C)(C)[C@@H](OC(=O)NCCN5CCOCC5)CC[C@@]45C[C@@]35CC[C@]21C)C(C)(C)O | 230 |  |  | 
2 |  |  |  | CC(=O)O[C@@H]([C@@H]1C[C@@H](C)[C@H]2[C@H](O1)[C@H](O)[C@@]1(C)[C@@H]3CC[C@H]4C(C)(C)[C@@H](O[C@@H]5OC[C@@H](O)[C@H](O)[C@H]5O)CC[C@@]45C[C@@]35CC[C@]21C)C(C)(C)O | 60 | 1000 |  | 
3 | > 8 | 37 |  | CC(=O)O[C@@H]([C@@H]1C[C@@H](C)[C@H]2[C@H](O1)[C@H](O)[C@@]1(C)[C@@H]3CC[C@H]4C(C)(C)[C@@H](OC(=O)NCC(=O)O)CC[C@@]45C[C@@]35CC[C@]21C)C(C)(C)O | 2500 |  |  | 
4 | 24 |  |  | CC(=O)O[C@@H]([C@@H]1C[C@@H](C)[C@H]2[C@H](O1)[C@H](O)[C@@]1(C)[C@@H]3CC[C@H]4C(C)(C)[C@@H](OC(=O)C5CNC5)CC[C@@]45C[C@@]35CC[C@]21C)C(C)(C)O | 55 | 1300 |  | 
5 |  |  |  | CC(=O)O[C@@H]([C@@H]1C[C@@H](C)[C@H]2[C@H](O1)[C@H](O)[C@@]1(C)[C@@H]3CC[C@H]4C(C)(C)[C@@H](OC(=O)C5CCN5)CC[C@@]45C[C@@]35CC[C@]21C)C(C)(C)O (mixture of isomers) | 220 |  |  | 
6 |  |  |  | C[C@@H]1C[C@@H]([C@H](O)C(C)(C)O)O[C@H]2[C@H]1[C@@]1(C)CC[C@@]34C[C@@]35CC[C@H](O[C@@H]3OC[C@@H](O)[C@H](O)[C@H]3O)C(C)(C)[C@@H]5CC[C@H]4[C@]1(C)[C@H]2O | 3100 |  |  | 
7 |  |  |  | CC(=O)O[C@@H]([C@@H]1C[C@@H](C)[C@H]2[C@H](O1)C(=O)[C@@]1(C)[C@@H]3CC[C@H]4C(C)(C)[C@@H](O[C@@H]5OC[C@@H](O)[C@H](O)[C@H]5O)CC[C@@]45C[C@@]35CC[C@]21C)C(C)(C)O | 600 | 9800 |  | 
8 | 29 |  |  | CC(=O)O[C@@H]([C@@H]1C[C@@H](C)[C@H]2[C@H](O1)[C@H](O)[C@@]1(C)[C@@H]3CC[C@H]4C(C)(C)[C@@H](OC(=O)NC5CN6CCC5CC6)CC[C@@]45C[C@@]35CC[C@]21C)C(C)(C)O (stereo partly specified) | 84 | 2400 |  | 
9 |  |  |  | CC(=O)OC(C)(C)[C@H]1O[C@@]23O[C@H]1C[C@@H](C)C2[C@@]1(C)CC[C@@]24C[C@@]25CC[C@H](O[C@@H]2OC[C@@H](O)[C@H](O)[C@H]2O)C(C)(C)[C@@H]5CC[C@H]4[C@]1(C)[C@H]3O (stereo partly specified) | 3000 |  |  | 
10 | 20 |  |  | CC(=O)O[C@@H]([C@@H]1C[C@@H](C)[C@H]2[C@H](O1)[C@H](O)[C@@]1(C)[C@@H]3CC[C@H]4C(C)(C)[C@@H](OC(=O)[C@@H]5CCCN5)CC[C@@]45C[C@@]35CC[C@]21C)C(C)(C)O | 230 | 4600 |  | 
11 | 43 |  |  | CC(=O)O[C@@H]([C@@H]1C[C@@H](C)[C@H]2[C@H](O1)[C@H](O)[C@@]1(C)[C@@H]3CC[C@H]4C(C)(C)[C@@H](OC(=O)N5CCC5)CC[C@@]45C[C@@]35CC[C@]21C)C(C)(C)O | 340 | 14700 |  | 
12 |  |  |  | CC(=O)O[C@@H]([C@@H]1C[C@@H](C)[C@H]2[C@H](O1)[C@H](O)[C@@]1(C)[C@@H]3CC[C@H]4C(C)(C)[C@@H](O)CC[C@@]45C[C@@]35CC[C@]21C)C(C)(C)O | 600 | 14000 |  | 
13 | > 35 | 32 |  | CC(=O)O[C@@H]([C@@H]1C[C@@H](C)[C@H]2[C@H](O1)[C@H](O)[C@@]1(C)[C@@H]3CC[C@H]4C(C)(C)[C@@H](OC(=O)NCc5ccccn5)CC[C@@]45C[C@@]35CC[C@]21C)C(C)(C)O | 560 |  |  | 
14 |  |  |  | CC(=O)O[C@@H]([C@@H]1C[C@@H](C)[C@H]2[C@H](O1)[C@H](O)[C@@]1(C)[C@@H]3CC[C@H]4C(C)(C)[C@@H](OC(=O)c5ccncc5)CC[C@@]45C[C@@]35CC[C@]21C)C(C)(C)O | 1000 |  |  | 
15 | > 33 | 41 |  | CC(=O)O[C@@H]([C@@H]1C[C@@H](C)[C@H]2[C@H](O1)[C@H](O)[C@@]1(C)[C@@H]3CC[C@H]4C(C)(C)[C@@H](OC(=O)C5(C)COC5)CC[C@@]45C[C@@]35CC[C@]21C)C(C)(C)O | 590 |  |  | 
16 | > 11 |  | 23 | CC(=O)O[C@@H]([C@@H]1C[C@@H](C)[C@H]2[C@H](O1)[C@H](O)[C@@]1(C)[C@@H]3CC[C@H]4C(C)(C)[C@@H](OC(=O)NCCN(C)C)CC[C@@]45C[C@@]35CC[C@]21C)C(C)(C)O | 360 |  |  | 
17 |  |  |  | CC(=O)O[C@@H]([C@@H]1C[C@@H](C)[C@H]2[C@H](O1)[C@H](O)[C@@]1(C)[C@@H]3CC[C@H]4C(C)(C)[C@@H](OC(=O)CN)CC[C@@]45C[C@@]35CC[C@]21C)C(C)(C)O | 95 |  |  | 
18 |  |  |  | CC(=O)O[C@@H]([C@@H]1C[C@@H](C)C2=C(O1)[C@H](O)[C@@]1(C)[C@@H]3CC[C@H]4C(C)(C)[C@@H](O[C@@H]5OC[C@@H](O)[C@H](O)[C@H]5O)CC[C@@]45C[C@@]35CC[C@]21C)C(C)(C)O | 100 | 2700 | 6300 | 100
19 | > 44 | 40 |  | CC(=O)O[C@@H]([C@@H]1C[C@@H](C)[C@H]2[C@H](O1)[C@H](O)[C@@]1(C)[C@@H]3CC[C@H]4C(C)(C)[C@@H](OC(=O)NC5COC5)CC[C@@]45C[C@@]35CC[C@]21C)C(C)(C)O | 450 |  |  | 
20 | 62 |  |  | CC(=O)O[C@@H]([C@@H]1C[C@@H](C)[C@H]2[C@H](O1)[C@H](O)[C@@]1(C)[C@@H]3CC[C@H]4C(C)(C)[C@@H](OC(=O)N5CCOCC5)CC[C@@]45C[C@@]35CC[C@]21C)C(C)(C)O | 220 | 13600 |  | 
21 | 33 |  |  | CC(=O)O[C@@H]([C@@H]1C[C@@H](C)[C@H]2[C@H](O1)[C@H](O)[C@@]1(C)[C@@H]3CC[C@H]4C(C)(C)[C@@H](OC(=O)NCCN)CC[C@@]45C[C@@]35CC[C@]21C)C(C)(C)O | 91 | 3000 |  | 
22 | > 42 | 26 |  | CC(=O)O[C@@H]([C@@H]1C[C@@H](C)[C@H]2[C@H](O1)[C@H](O)[C@@]1(C)[C@@H]3CC[C@H]4C(C)(C)[C@@H](OC(=O)NC5CCC5)CC[C@@]45C[C@@]35CC[C@]21C)C(C)(C)O | 470 |  |  | 

Row | SMILES | Ratio IC50 [1] | inhibition [2] [%] | inhibition [5] [%] | IC50 (Gamma-secretase [3]) [nM] | IC50 (Gamma-secretase [4]) [nM] | IC50 (Gamma-secretase [6]) [nM] | IC50 (Gamma-secretase [7]) [nM]
23 | CC(=O)O[C@@H]([C@@H]1C[C@@H](C)[C@H]2[C@H](O1)[C@H](O)[C@@]1(C)[C@@H]3CC[C@H]4C(C)(C)[C@@H](OC(=O)Cc5ccccn5)CC[C@@]45C[C@@]35CC[C@]21C)C(C)(C)O | 9 |  |  | 780 | 7200 |  | 
24 | CC(=O)O[C@H]1CC[C@]23C[C@]24CC[C@]2(C)[C@@H]5[C@H](O[C@H]([C@H](OC(C)=O)C(C)(C)O)C[C@H]5C)[C@H](O)[C@@]2(C)[C@@H]4CC[C@H]3C1(C)C | 16 |  |  | 760 | 12000 |  | 
25 | CC(=O)O[C@@H]([C@@H]1C[C@@H](C)[C@H]2[C@H](O1)[C@H](O)[C@@]1(C)[C@@H]3CC[C@H]4C(C)(C)[C@@H](OC(=O)NC5CNC5)CC[C@@]45C[C@@]35CC[C@]21C)C(C)(C)O | 7 |  |  | 47 | 330 |  | 
26 | CC(=O)O[C@@H]([C@@H]1C[C@@H](C)[C@H]2[C@H](O1)[C@H](O)[C@@]1(C)[C@@H]3CC[C@H]4C(C)(C)[C@@H](OC(N)=O)CC[C@@]45C[C@@]35CC[C@]21C)C(C)(C)O | > 100 | 27 |  | 200 |  |  | 
27 | CC(=O)O[C@@H]([C@@H]1C[C@@H](C)[C@H]2[C@H](O1)[C@H](O)[C@@]1(C)[C@@H]3CC[C@H]4C(C)(C)[C@@H](OC(=O)c5cccnc5)CC[C@@]45C[C@@]35CC[C@]21C)C(C)(C)O | 54 |  |  | 260 | 14000 |  | 
28 | CC(=O)O[C@@H]([C@@H]1C[C@@H](C)[C@H]2[C@H](O1)[C@H](O)[C@@]1(C)[C@@H]3CC[C@H]4C(C)(C)[C@@H](OC(=O)CCC(=O)O)CC[C@@]45C[C@@]35CC[C@]21C)C(C)(C)O | 11 |  |  | 1600 | 18000 |  | 
29 | CC(=O)O[C@@H]([C@@H]1C[C@@H](C)[C@H]2[C@H](O1)[C@H](O)[C@@]1(C)[C@@H]3CC[C@H]4C(C)(C)[C@@H](OC(=O)CN(C)C)CC[C@@]45C[C@@]35CC[C@]21C)C(C)(C)O | 15 |  |  | 570 | 8400 |  | 
30 | CC(=O)O[C@@H]([C@@H]1C[C@@H](C)[C@H]2[C@H](O1)[C@H](O)[C@@]1(C)[C@@H]3CC[C@H]4C(C)(C)[C@@H](OC(=O)C5CCCO5)CC[C@@]45C[C@@]35CC[C@]21C)C(C)(C)O (mixture of isomers) | > 23 | 44 |  | 860 |  |  | 
31 | CC(=O)O[C@@H]([C@@H]1C[C@@H](C)[C@H]2[C@H](O1)[C@H](O)[C@@]1(C)[C@@H]3CC[C@H]4C(C)(C)[C@@H](OC(=O)c5ccccn5)CC[C@@]45C[C@@]35CC[C@]21C)C(C)(C)O | 25 |  |  | 520 | 13000 |  | 

From ChEMBL document CHEMBL3217610, “SAR investigations on a novel class of gamma-secretase modulators based on a unique scaffold” (Medchemcomm, 2013)
